Measured values from US12612360B2 (Sanofi, priority 2020, dated 2026).

Biological target: T1, ERα (Homo sapiens, UniProt P03372)
T1 construct: host or cells: MCF7
T1 sequence (P03372 1-595): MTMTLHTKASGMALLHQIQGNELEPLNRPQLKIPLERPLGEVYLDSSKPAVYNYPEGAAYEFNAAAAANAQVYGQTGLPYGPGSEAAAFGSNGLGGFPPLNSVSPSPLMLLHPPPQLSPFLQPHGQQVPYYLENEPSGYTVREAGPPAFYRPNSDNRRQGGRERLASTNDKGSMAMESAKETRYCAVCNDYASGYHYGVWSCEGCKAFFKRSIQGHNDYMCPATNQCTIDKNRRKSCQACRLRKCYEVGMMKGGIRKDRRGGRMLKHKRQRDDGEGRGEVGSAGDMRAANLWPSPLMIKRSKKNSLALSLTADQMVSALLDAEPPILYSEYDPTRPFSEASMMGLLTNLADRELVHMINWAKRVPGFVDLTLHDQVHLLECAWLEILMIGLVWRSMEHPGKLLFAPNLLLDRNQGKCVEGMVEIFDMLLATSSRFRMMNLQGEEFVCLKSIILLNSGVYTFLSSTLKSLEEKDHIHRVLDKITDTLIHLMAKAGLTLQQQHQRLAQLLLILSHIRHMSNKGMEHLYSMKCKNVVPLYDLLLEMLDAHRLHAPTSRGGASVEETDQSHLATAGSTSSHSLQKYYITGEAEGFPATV
Assay: Estrogen receptor degradation activity: breast cancer cell ERα in cell western assay (MCF7 cells)
Assay type: cell-based
Conditions: for % Degradation At 0.3 μM: 4 hours, relative to fulvestrant 0.1 μM positive control; for DC50: 4 hours post compound addition, concentration which degrades 50% of the estrogen receptor, read-out: Degradation IC50
Outline: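 In-cell western readout: ERα immunofluorescence (Alexa 488) normalised to DNA signal (Syto-64) after formalin fixation. Compounds dosed for 4 h on MCF7 cells in stripped-serum, phenol-red-free medium over nine 1:5 steps, 0.3 to […] final; fulvestrant 0.1 μM control. IC50 in nM for 50% ERα degradation.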

Row | SMILES | % Degradation At 0.3 μM [%] | DC50 [nM]
1 | O=C(O)c1ccc2c(c1)CCCC(c1cc(Cl)cc(C(F)(F)F)c1)=C2c1ccc(C=C2CN(CCCF)C2)cc1 [Example 143, 8-(3-chloro-5-(trifluoromethyl)phenyl)-9-(4-((1-(3-fluoropropyl)azetidin-3-ylidene)methyl)phenyl)-6,7-dihydro-5H-benzo[7]annulene-3-carboxylic acid] | 81 | 3.7
2 | CCc1cc(F)ccc1C1=C(c2ccc(C=C3CN(CCCF)C3)cc2)c2ccc(C(=O)O)cc2CCC1 [Example 96, 8-(2-ethyl-4-fluorophenyl)-9-(4-((1-(3-fluoropropyl)azetidin-3-ylidene)methyl)phenyl)-6,7-dihydro-5H-benzo[7]annulene-3-carboxylic acid] | 98 | 0.2
3 | Cc1cc(F)ccc1C1=C(c2c(F)cc(C=C3CN(CCCF)C3)cc2F)c2ccc(C(=O)O)cc2CCC1 [Example 68] | 96 | 0.3
4 | Cc1cc(C2=C(c3ccc(F)cc3F)CCCc3cc(C(=O)O)ccc32)cc(F)c1C=C1CN(CCCF)C1 [Example 27, 8-(2,4-difluorophenyl)-9-(3-fluoro-4-((1-(3-fluoropropyl)azetidin-3-ylidene)methyl)-5-methylphenyl)-6,7-dihydro-5H-benzo[7]annulene-3-carboxylic acid] | 92 | 0.9
5 | O=C(O)c1ccc2c(c1)CCCC(c1ccc(F)c3c1CCC3)=C2c1ccc(C=C2CN(CCC(F)F)C2)cc1 [Example 165, 9-(4-((1-(3,3-difluoropropyl)azetidin-3-ylidene)methyl)phenyl)-8-(7-fluoro-2,3-dihydro-1H-inden-4-yl)-6,7-dihydro-5H-benzo[7]annulene-3-carboxylic acid] | 96 | 1.9
6 | O=C(O)c1ccc2c(c1)CCCC(c1ccc(Cl)cc1Cl)=C2c1ccc(C=C2CN(CCCF)C2)cn1 [Example 159, 8-(2,4-Dichlorophenyl)-9-(5-((1-(3-fluoropropyl)azetidin-3-ylidene)methyl)pyridin-2-yl)-6,7-dihydro-5H-benzo[7]annulene-3-carboxylic acid] | 97 | 20.4
7 | Cl.O=C(O)c1ccc2c(c1)CCCC(c1ccc(Cl)cc1Cl)=C2c1ccc(C=C2CN(CCCF)C2)cc1F [Example 101, 8-(2,4-dichlorophenyl)-9-(2-fluoro-4-((1-(3-fluoropropyl)azetidin-3-ylidene)methyl)phenyl)-6,7-dihydro-5H-benzo[7]annulene-3-carboxylic acid hydrochloride] | 93 | 0.4
8 | Cl.O=C(O)c1ccc2c(c1)SCCC(c1ccc(Cl)cc1Cl)=C2c1ccc(C=C2CN(CCCF)C2)cc1 [Example 115, 4-(2,4-dichlorophenyl)-5-[4-[[1-(3-fluoropropyl)azetidin-3-ylidene]methyl]phenyl]-2,3-dihydro-1-benzothiepine-8-carboxylic acid; hydrochloride] | 100 | 120
9 | Cc1ccc(C2=C(c3ccc(C=C4CN(CCCF)C4)cc3)c3ccc(C(=O)O)cc3CCC2)c(C(F)(F)F)c1 [Example 70, 9-(4-((1-(3-fluoropropyl)azetidin-3-ylidene)methyl)phenyl)-8-(4-methyl-2-(trifluoromethyl)phenyl)-6,7-dihydro-5H-benzo[7]annulene-3-carboxylic acid] | 101 | 0.2
10 | O=C(O)c1ccc2c(c1)CCCC(c1ccc(F)c(C(F)(F)F)c1F)=C2c1ccc(C=C2CN(CCCF)C2)cc1 [Example 124, 8-(2,4-difluoro-3-(trifluoromethyl)phenyl)-9-(4-((1-(3-fluoropropyl)azetidin-3-ylidene)methyl)phenyl)-6,7-dihydro-5H-benzo[7]annulene-3-carboxylic acid] | 93 | 1.2
11 | Cc1cc(C=C2CN(CCCF)C2)cc(F)c1C1=C(c2ccc(Cl)cc2Cl)CCCc2cc(C(=O)O)ccc21.Cl [Example 66, 8-(2,4-dichlorophenyl)-9-(2-fluoro-4-((1-(3-fluoropropyl)azetidin-3-ylidene)methyl)-6-methylphenyl)-6,7-dihydro-5H-benzo[7]annulene-3-carboxylic acid hydrochloride] | 98 | 0.4
12 | Cc1ccc(C2=C(c3ccc(C=C4CN(CCCF)C4)cc3)c3ccc(C(=O)O)cc3CCC2)c(F)c1 [Example 57, 8-(2-fluoro-4-methylphenyl)-9-(4-((1-(3-fluoropropyl)azetidin-3-ylidene)methyl)phenyl)-6,7-dihydro-5H-benzo[7]annulene-3-carboxylic acid] | 93 | 0.2
13 | O=C(O)c1ccc2c(c1)CCCC(C1CC13CCC3)=C2c1ccc(C=C2CN(CCCF)C2)cc1 (stereo not shown) [Example 176, 9-(4-((1-(3-fluoropropyl)azetidin-3-ylidene)methyl)phenyl)-8-(spiro[2.3]hexan-1-yl)-6,7-dihydro-5H-benzo[7]annulene-3-carboxylic acid] | 93 | 0.3
14 | Cc1c(Cl)ccc(C2=C(c3ccc(C=C4CN(CCCF)C4)cc3)c3ccc(C(=O)O)cc3CCC2)c1C [Example 82, 8-(4-chloro-2,3-dimethylphenyl)-9-(4-((1-(3-fluoropropyl)azetidin-3-ylidene)methyl)phenyl)-6,7-dihydro-5H-benzo[7]annulene-3-carboxylic acid] | 90 | 0.5
15 | Oc1ccc2c(c1)CCCC(c1ccc(Cl)cc1Cl)=C2c1ccc(C=C2CN(CCCF)C2)cc1 [Example 170, 8-(2,4-dichlorophenyl)-9-(4-((1-(3-fluoropropyl)azetidin-3-ylidene)methyl)phenyl)-6,7-dihydro-5H-benzo[7]annulen-3-ol] | 85 | 0.2
16 | O=C(O)c1ccc2c(c1)CCCC(c1cc(C(F)(F)F)ccc1F)=C2c1ccc(C=C2CN(CCCF)C2)cc1 [Example 121, 8-(2-fluoro-5-(trifluoromethyl)phenyl)-9-(4-((1-(3-fluoropropyl)azetidin-3-ylidene)methyl)phenyl)-6,7-dihydro-5H-benzo[7]annulene-3-carboxylic acid] | 94 | 0.7
17 | Cc1ccc(C(F)(F)F)c(C2=C(c3ccc(C=C4CN(CCCF)C4)cc3)c3ccc(C(=O)O)cc3CCC2)c1 [Example 119, 9-(4-((1-(3-fluoropropyl)azetidin-3-ylidene)methyl)phenyl)-8-(5-methyl-2-(trifluoromethyl)phenyl)-6,7-dihydro-5H-benzo[7]annulene-3-carboxylic acid] | 94 | 0.9
18 | O=C(O)c1ccc2c(c1)CCCC(c1cccc3c1CCC3)=C2c1ccc(C=C2CN(CCC(F)F)C2)cc1 [Example 163, 9-(4-((1-(3,3-difluoropropyl)azetidin-3-ylidene)methyl)phenyl)-8-(2,3-dihydro-1H-inden-4-yl)-6,7-dihydro-5H-benzo[7]annulene-3-carboxylic acid] | 98 | 0.8
19 | O=C(O)c1ccc2c(c1)CCCC(c1cccc(Cl)c1)=C2c1ccc(C=C2CN(CCCF)C2)cc1 [Example 180, 8-(3-chlorophenyl)-9-(4-((1-(3-fluoropropyl)azetidin-3-ylidene)methyl)phenyl)-6,7-dihydro-5H-benzo[7]annulene-3-carboxylic acid] | 90 | 0.5
20 | Cl.O=C(O)c1ccc2c(c1)CCCC(c1ccc(Cl)cc1Cl)=C2c1ccc(C=C2CN(CCCF)C2)c(F)c1F [Example 80, 8-(2,4-dichlorophenyl)-9-(2,3-difluoro-4-((1-(3-fluoropropyl)azetidin-3-ylidene)methyl)phenyl)-6,7-dihydro-5H-benzo[7]annulene-3-carboxylic acid hydrochloride] | 98 | 0.6
21 | O=C(O)c1ccc2c(c1)CCCC(c1ncc(Cl)cc1C(F)(F)F)=C2c1ccc(C=C2CN(CCCF)C2)cc1 [Example 35, 8-(5-chloro-3-(trifluoromethyl)pyridin-2-yl)-9-(4-((1-(3-fluoropropyl)azetidin-3-ylidene)methyl)phenyl)-6,7-dihydro-5H-benzo[7]annulene-3-carboxylic acid] | 93 | 0.4
22 | CCc1ccccc1C1=C(c2ccc(C=C3CN(CCCF)C3)cc2)c2ccc(C(=O)O)cc2CCC1 [Example 86, 8-(2-ethylphenyl)-9-(4-((1-(3-fluoropropyl)azetidin-3-ylidene)methyl)phenyl)-6,7-dihydro-5H-benzo[7]annulene-3-carboxylic acid] | 92 | 0.2
23 | Cc1cc(F)ccc1C1=C(c2ccc(C=C3CN(CCCF)C3)c(C)c2F)c2ccc(C(=O)O)cc2CCC1 [Example 67, 8-(4-fluoro-2-methylphenyl)-9-(2-fluoro-4-((1-(3-fluoropropyl)azetidin-3-ylidene)methyl)-3-methylphenyl)-6,7-dihydro-5H-benzo[7]annulene-3-carboxylic acid] | 99 | 0.5
